What was measured:
GBA = biological target: T1, GBA (Homo sapiens, UniProt P04062); experiment: Inhibition in intact HEK293T cells (24 h), read out by cABPP with ABP 10, GBA; assay type: cell-based; conditions: for IC50: 24 h treatment, cABPP quantification, n=3
T1 construct: HEK293T cells that contain endogenous GBA; endogenous in cells; host or cells: HEK293T (ATCC CRL-3216) overexpressing GBA2 and GBA3
T1 sequence (P04062 40-536): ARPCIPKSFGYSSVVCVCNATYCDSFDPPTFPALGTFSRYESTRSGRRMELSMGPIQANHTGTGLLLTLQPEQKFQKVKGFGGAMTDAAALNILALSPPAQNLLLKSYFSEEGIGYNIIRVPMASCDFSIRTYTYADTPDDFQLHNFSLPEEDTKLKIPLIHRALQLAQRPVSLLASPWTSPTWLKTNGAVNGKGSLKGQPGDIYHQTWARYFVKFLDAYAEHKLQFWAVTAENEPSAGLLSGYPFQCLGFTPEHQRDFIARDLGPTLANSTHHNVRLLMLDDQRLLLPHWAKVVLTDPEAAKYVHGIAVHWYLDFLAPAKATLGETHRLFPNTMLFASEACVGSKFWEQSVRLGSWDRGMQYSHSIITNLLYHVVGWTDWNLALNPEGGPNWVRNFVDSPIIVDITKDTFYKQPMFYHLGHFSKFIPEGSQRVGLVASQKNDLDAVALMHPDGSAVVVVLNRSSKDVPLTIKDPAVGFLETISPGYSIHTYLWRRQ
Excerpt: (§1) We next examined the activity of 1 and 2 towards the three human β‐D‐glucosidase in intact HEK293T cells. […] It is noted that the GBA‐selectivity of both compounds is much improved in intact cells than in the in vitro system (Figure 2 and Table 1). This is especially true for compound 1, where an impressive 4‐logs of selectivity window is observed.
(§2) Figure 5 Inhibitory effect of β‐D‐xylo‐configured cyclophellitol 1 and cyclophellitol aziridine 2 on β‐glucosidases in intact HEK293T cells expressing GBA, GBA2 and GBA3. (A) Representative gel images of cABPP where cells were treated for 24 h with indicated inhibitor. Lysates were then prepared and labeled with fluorescent ABP 10. Fluorescently labeled proteins were visualized after SDS‐PAGE (1 set from n=3 replicates). (B) IC50 curves determined by cABPP labeling results. (C) Apparent IC50 values towards β‐glucosidases in intact HEK293T cells producing GBA, GBA2 and GBA3 were determined by the fluorescence quantification based on cABPP SDS‐PAGE results.
ABP labeling procedure: Glycosidases were labeled with excess fluorescent ABPs at optimum conditions. […] After ABP incubation, proteins were denatured by boiling the samples with 5× Laemmli buffer (50 % (v/v) 1 M Tris‐HCl, pH 6.8, 50 % (v/v) 100 % glycerol, 10 % (w/v) DTT, 10 % (w/v) SDS, 0.01 % (w/v) bromophenol blue) for 5 min at 98 °C, and separated by electrophoresis on 10 % (w/v) SDS‐PAGE gels running continuously at 90 V. Wet slab‐gels were scanned on fluorescence using the Typhoon FLA 9500 (GE Healthcare) at λEX 473 nm and λEM≥510 nm for green fluorescent ABP 8; and at λEX 635 nm and λEM≥665 nm for ABP 6, 9 and 10. ABP‐emitted fluorescence was quantified using ImageQuant software (GE Healthcare, Chicago, IL, USA) and curve‐fitted using Prism 8.0 (GraphPad Software). After fluorescence scanning, SDS‐PAGE gels were stained for total protein with Coomassie G250 and scanned on a ChemiDoc MP imager (Bio‐Rad, Hercules, CA, USA).[25] […]

GBA2 = biological target: T2, GBA2 (Homo sapiens, UniProt Q9HCG7); experiment: Inhibition in intact HEK293T cells (24 h), read out by cABPP with ABP 10, GBA2; assay type: cell-based; conditions: for IC50: 24 h treatment, cABPP quantification, n=3; for GBA2/GBA ratio, intact cells: IC50 ratio, 24 h
T2 construct: expressed in transfected cells; host or cells: HEK293T (GBA/GBA2 KO background for the fluorogenic assay; endogenous-GBA background with GBA2 and GBA3 overexpressed for ABPP and intact-cell assays)
T2 sequence (Q9HCG7 1-927): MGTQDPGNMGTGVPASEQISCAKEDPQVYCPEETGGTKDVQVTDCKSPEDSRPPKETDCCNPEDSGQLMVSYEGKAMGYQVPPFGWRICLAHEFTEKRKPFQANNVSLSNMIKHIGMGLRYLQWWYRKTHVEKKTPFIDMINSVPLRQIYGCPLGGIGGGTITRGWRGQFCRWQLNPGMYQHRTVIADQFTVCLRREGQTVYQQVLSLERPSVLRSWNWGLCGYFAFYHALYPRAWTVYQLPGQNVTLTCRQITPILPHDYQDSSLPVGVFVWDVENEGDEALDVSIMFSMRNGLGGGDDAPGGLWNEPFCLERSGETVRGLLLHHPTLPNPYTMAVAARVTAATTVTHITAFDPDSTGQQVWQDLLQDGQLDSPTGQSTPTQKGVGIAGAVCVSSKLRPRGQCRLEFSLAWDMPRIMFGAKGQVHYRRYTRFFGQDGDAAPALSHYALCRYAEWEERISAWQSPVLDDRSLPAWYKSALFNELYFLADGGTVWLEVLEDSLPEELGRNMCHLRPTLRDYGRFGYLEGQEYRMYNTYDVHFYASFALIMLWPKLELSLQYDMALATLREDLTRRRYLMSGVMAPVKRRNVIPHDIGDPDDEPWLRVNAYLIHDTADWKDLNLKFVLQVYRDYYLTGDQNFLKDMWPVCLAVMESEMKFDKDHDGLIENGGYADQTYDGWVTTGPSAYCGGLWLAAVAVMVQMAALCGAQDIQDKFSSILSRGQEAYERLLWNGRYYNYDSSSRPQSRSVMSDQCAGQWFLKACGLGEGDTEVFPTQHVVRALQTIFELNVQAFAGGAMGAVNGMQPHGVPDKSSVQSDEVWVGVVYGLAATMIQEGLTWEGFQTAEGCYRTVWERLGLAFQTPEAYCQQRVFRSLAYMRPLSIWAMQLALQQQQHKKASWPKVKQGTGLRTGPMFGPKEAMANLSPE
Excerpt: as §1, §2
ABP labeling procedure: Glycosidases were labeled with excess fluorescent ABPs at optimum conditions. ABP labeling was performed at 37 °C for 30 min for all materials (if not otherwise stated), in a total sample volume of 20–40 μL and 0.5–1 % DMSO concentration. GBA was labeled with 200 nM ABP 9 (pH 5.2, 0.1 % (v/v) Triton‐100, 0.2 % (w/v) sodium taurocholate), or labeled together with GBA2 using 200 nM β‐D‐glucose‐configured aziridine ABP 10 at pH 5.8, or labeling together with GBA2 and GBA3 using 200 nM β‐D‐glucose‐configured aziridine ABP 10 at pH 6.0. After ABP incubation, proteins were denatured by boiling the samples with 5× Laemmli buffer (50 % (v/v) 1 M Tris‐HCl, pH 6.8, 50 % (v/v) 100 % glycerol, 10 % (w/v) DTT, 10 % (w/v) SDS, 0.01 % (w/v) bromophenol blue) for 5 min at 98 °C, and separated by electrophoresis on 10 % (w/v) SDS‐PAGE gels running continuously at 90 V. Wet slab‐gels were scanned on fluorescence using the Typhoon FLA 9500 (GE Healthcare) at λEX 473 nm and λEM≥510 nm for green fluorescent ABP 8; and at λEX 635 nm and λEM≥665 nm for ABP 6, 9 and 10. ABP‐emitted fluorescence was quantified using ImageQuant software (GE Healthcare, Chicago, IL, USA) and curve‐fitted using Prism 8.0 (GraphPad Software). After fluorescence scanning, SDS‐PAGE gels were stained for total protein with Coomassie G250 and scanned on a ChemiDoc MP imager (Bio‐Rad, Hercules, CA, USA).[25]
Assessment of inhibitor activity in cultured cells: Confluent HEK293T stably expressing human GBA and GBA2 GBA3 overexpressing were cultured in 24‐well plates in triplicates with(out) inhibitors for 24 h at 37 °C with 7 % CO2. […]

| Compound | IC50 (GBA) [nM] | IC50 (GBA2) [nM] | GBA2/GBA ratio, intact cells (GBA2) | selectivity window for GBA in intact cells (GBA; 24 h) [logs] |
| --- | --- | --- | --- | --- |
| O[C@@H]1[C@@H](O)[C@H](O)C[C@H]2N[C@@H]12 [compound 2, β‐D‐xylo‐Cyclophellitol aziridine] | 42.2 | 10400 ± 1530 | 247 | – |
| O[C@@H]1[C@@H](O)[C@H](O)C[C@H]2O[C@@H]12 [compound 1, xylo‐cyclophellitol] | 5.71 | > 100000 | > 10000 | 4 |

From publication PMC8596838, “Xylose‐Configured Cyclophellitols as Selective Inhibitors for Glucocerebrosidase” (Chembiochem, 2021)
